Several values for one entry are separate records, joined by “and”; a condition that tells them apart may be missing. Equal entries are not always repeated. Where only a bound is given, the exact number is not on record here.

Chain of Glycolate oxidase (GO) (Q9UJM8 whole entry): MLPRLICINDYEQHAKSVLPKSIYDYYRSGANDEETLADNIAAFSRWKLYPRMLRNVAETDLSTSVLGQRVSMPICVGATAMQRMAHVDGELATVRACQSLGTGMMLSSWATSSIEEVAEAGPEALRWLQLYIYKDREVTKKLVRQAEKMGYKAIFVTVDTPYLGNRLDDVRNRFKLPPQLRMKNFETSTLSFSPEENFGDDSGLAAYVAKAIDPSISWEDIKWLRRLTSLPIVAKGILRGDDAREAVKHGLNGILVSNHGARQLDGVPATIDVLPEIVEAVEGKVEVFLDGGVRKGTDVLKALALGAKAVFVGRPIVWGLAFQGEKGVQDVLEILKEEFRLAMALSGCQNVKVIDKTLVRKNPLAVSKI

Tested on in the first data set: not listed separately
Description: Plasma pharmacokinetics after an oral dose of Example 2 in SD rats. It is filed as in vivo, Sprague Dawley rats. Conditions: Example 2 in plasma, PO Example 2 5 mg/kg, individual rats. The procedure:
An oral dose of Example 2 was formulated in a sterile solution of 50% water, 37.5% PEG 300, and 12.5% DMSO at 1.0 mg/mL. The dosing group consisted of three fasted male Sprague Dawley rats. At dosing, the animals weighed between 0.26 and 0.27 kg. For the oral dosing group, the formulated dose was administered via oral gavage at 5.0 mL/kg for a dose of 5.0 mg/kg. Non-compartmental pharmacokinetic analysis was performed on the plasma concentration-time data.
Usually Cmax stands for the highest concentration seen after dosing. By Tmax is commonly meant the time from dosing to the highest level. In the case of `CCOC(=O)c1[nH]nnc1-c1ccc(-c2ccc(C(N)=O)cc2)cc1` [Example 2, ethyl 4-(4carbamoyl-[1,1biphenyl]-4-yl)-1H-1,2,3-triazole-5-carboxylate], the AUC0-24 h was 1.55 µM·h and 1.85 µM·h; the AUCinf was 1.57 µM·h and 1.9 µM·h; the Cmax was 2530 nM and 2110 nM; the time to peak (Tmax) turned out to be 30 min.

The same data set, now with this note: Example 2 in plasma, PO Example 2 5 mg/kg, mean n=3.
As to `CCOC(=O)c1[nH]nnc1-c1ccc(-c2ccc(C(N)=O)cc2)cc1` [Example 2, ethyl 4-(4carbamoyl-[1,1biphenyl]-4-yl)-1H-1,2,3-triazole-5-carboxylate], the AUCinf was 1.6 µM·h.

The same data set, now with this note: male, Sprague Dawley, rat, plasma, po, 5 mg/kg, Example 2 in plasma, PO Example 2 5 mg/kg, individual rats.
The AUC(0-inf) is total exposure, with the tail of the curve extrapolated. Read a high AUC(0-inf) as high exposure. In turn, `CCOC(=O)c1[nH]nnc1-c1ccc(-c2ccc(C(N)=O)cc2)cc1` [Example 2, ethyl 4-(4carbamoyl-[1,1biphenyl]-4-yl)-1H-1,2,3-triazole-5-carboxylate] came in with an AUC(0-inf) of 1.34 µM·h and a maximum concentration (Cmax) of 2540 nM.

Still in this data set, the particulars now being: male, Sprague Dawley, rat, plasma, po, 5 mg/kg, Example 2 in plasma, PO Example 2 5 mg/kg, individual rats, read-out: AUC0-24 h.
On to `CCOC(=O)c1[nH]nnc1-c1ccc(-c2ccc(C(N)=O)cc2)cc1` [Example 2, ethyl 4-(4carbamoyl-[1,1biphenyl]-4-yl)-1H-1,2,3-triazole-5-carboxylate], for which the AUC(0-t) worked out at 1.27 µM·h.

Staying with this data set, now noted: male, Sprague Dawley, rat, plasma, po, 5 mg/kg, Example 2 in plasma, PO Example 2 5 mg/kg, individual rats, read-out: Tmax.
For the compound `CCOC(=O)c1[nH]nnc1-c1ccc(-c2ccc(C(N)=O)cc2)cc1` [Example 2, ethyl 4-(4carbamoyl-[1,1biphenyl]-4-yl)-1H-1,2,3-triazole-5-carboxylate], the time to peak (Tmax) was found to be 15 min.

Staying with this data set, now noted: male, Sprague Dawley, rat, plasma, po, 5 mg/kg, Example 2 in plasma, PO Example 2 5 mg/kg, mean n=3.
Turning to `CCOC(=O)c1[nH]nnc1-c1ccc(-c2ccc(C(N)=O)cc2)cc1` [Example 2, ethyl 4-(4carbamoyl-[1,1biphenyl]-4-yl)-1H-1,2,3-triazole-5-carboxylate], the total exposure AUC(0-inf) turned out to be 1.6 ± 0.28 µM·h and the Cmax stood at 2390 ± 246 nM.

Still in this data set, the particulars now being: male, Sprague Dawley, rat, plasma, po, 5 mg/kg, Example 2 in plasma, PO Example 2 5 mg/kg, mean n=3, read-out: AUC0-24 h.
For the compound `CCOC(=O)c1[nH]nnc1-c1ccc(-c2ccc(C(N)=O)cc2)cc1` [Example 2, ethyl 4-(4carbamoyl-[1,1biphenyl]-4-yl)-1H-1,2,3-triazole-5-carboxylate], the AUC(0-t) came to 1.56 µM·h.

Staying with this data set, now noted: male, Sprague Dawley, rat, plasma, po, 5 mg/kg, Example 2 in plasma, PO Example 2 5 mg/kg, mean n=3, read-out: Tmax.
Take `CCOC(=O)c1[nH]nnc1-c1ccc(-c2ccc(C(N)=O)cc2)cc1` [Example 2, ethyl 4-(4carbamoyl-[1,1biphenyl]-4-yl)-1H-1,2,3-triazole-5-carboxylate]: the Tmax came out at 19.8 min.

A further data set has as its target Glycolate oxidase (GO) (Homo sapiens (Human), UniProt Q9UJM8). Kind of data set: GO biochemical assay (Amplex Red, 384-well).
Settings: not given
The method, then:
Amplex® Red Hydrogen Peroxide/Peroxidase Assay Kit (Catalog no. A22188) was purchased from Thermo Fisher (Waltham, MA).
The reaction was mixed and incubated at room temperature for 20 min followed by reading the plates by EnVision plate reader (Perkin Elmer, San Jose, CA) with excitation at 570 nm and emission 585 nm. […] The % inhibition as calculated as 100%×(Well-Negative)/(Positive-Negative)
Broadly, the IC50 is the concentration at which inhibition is half-maximal. A lower IC50 goes with greater potency in that assay. In the case of `CCOC(=O)c1[nH]nnc1-c1ccc(-c2ccc(Cl)cc2)cc1` [Example 1], inhibition was half-maximal at 1000 nM (IC50). The same measure, in the same setting: next, `CCOC(=O)c1[nH]nnc1-c1ccc(-c2ccc(C(N)=O)cc2)cc1` [Example 2, ethyl 4-(4carbamoyl-[1,1biphenyl]-4-yl)-1H-1,2,3-triazole-5-carboxylate]: 1000 nM; `Cc1ccccc1-c1nn[nH]c1C(=O)O` [Example 3, 4-(o-tolyl)-1H-1,2,3-triazole-5-carboxylic acid]: ≥ 10000 nM.

With `Cc1ccc(-c2nn[nH]c2C(=O)O)cc1` [Example 5, 4-(p-tolyl)-1H-1,2,3-triazole-5-carboxylic acid], the IC50 was ≥ 10000 nM. On the same count and under the same terms, the figure for `O=C(O)c1[nH]nnc1-c1cccc(F)c1` [Example 8, 4-(3-fluorophenyl)-1H-1,2,3-triazole-5-carboxylic acid] is 1310 nM; for `N#Cc1cccc(-c2nn[nH]c2C(=O)O)c1` [Example 12] it is 130 nM; for `Cn1nnc(C(=O)O)c1-c1ccc(F)c(Cl)c1` [Example 17, 5-(3-chloro-4-fluorophenyl)-1-methyl-1H-1,2,3-triazole-4-carboxylic acid] it is ≥ 10000 nM.

`O=C(O)c1[nH]nnc1-c1ccc(Cl)c(Cl)c1` [Example 19, 4-(3,4-dichlorophenyl)-1H-1,2,3-triazole-5-carboxylic acid] had a concentration for half-maximal inhibition (IC50) of 196 nM. In other words, the sub-micromolar range.

Compound `O=C(O)c1[nH]nnc1-c1cccc(Cl)c1F` [Example 22, 4-(3-chloro-2-fluorophenyl)-1H-1,2,3-triazole-5-carboxylic acid] gave a concentration for half-maximal inhibition (IC50) of 159 nM.

`O=C(O)c1[nH]nnc1-c1ccc2c(c1)OC(F)(F)O2` [Example 29, 4-(2,2-difluorobenzo[d][1,3]dioxol-5-yl)-1H-1,2,3-triazole-5-carboxylic acid] had an IC50 of 330 nM. With `O=C(O)c1n[nH]cc1-c1cccnc1` [Example 35, 4-(pyridin-3-yl)-1H-pyrazole-3-carboxylic acid], the half-maximal inhibitory concentration (IC50) was ≥ 10000 nM. `COc1cc2ccc(-c3nn[nH]c3C(=O)O)cc2cn1` [Example 40, 4-(3-methoxyisoquinolin-7-yl)-1H-1,2,3-triazole-5-carboxylic acid] gave an IC50 of 1000 nM. In turn, `Cc1ccc(-c2ccc(-c3nn[nH]c3C(=O)O)cc2)cc1` [Example 53] displayed an IC50 of 377 nM.

In turn, `CC(C)(C)c1ccc(-c2ccc(-c3nn[nH]c3C(=O)O)cc2)cc1` [Example 54] came in with an IC50 of 4300 nM. This IC50 is about 11-fold higher than that of the compound before.

In the case of `O=C(O)c1[nH]nnc1-c1ccc(-c2ccc(OC(F)(F)F)cc2)cc1` [Example 55], half-maximal inhibition (IC50) required 563 nM.

As to `O=C(O)c1[nH]nnc1-c1ccc(-c2cccc(S(=O)(=O)N3CCOCC3)c2)cc1` [Example 75], the 50% inhibitory concentration (IC50) turned out to be 18.6 nM. `NS(=O)(=O)c1ccc(-c2ccc(-c3nn[nH]c3C(=O)O)cc2)cc1` [Example 77] had an IC50 of 94.6 nM. Still for that read-out and setting: the figure for `O=C(O)c1[nH]nnc1-c1ccc(-c2ccc(S(=O)(=O)N3CCCCC3)cc2)cc1` [Example 79] is 244 nM; for `O=C(O)c1[nH]nnc1-c1ccc(-c2ccc(N3CCCC3=O)cc2)cc1` [Example 83] it is 136 nM; for `O=C(O)c1[nH]nnc1-c1ccc(-c2ccc(N3CCOCC3)cc2)cc1` [Example 84] it is 1000 nM. The same measure, in the same setting: the figure for `O=C(O)c1[nH]nnc1-c1ccc2c(c1)oc1ccccc12` [Example 87, 4-(dibenzo[b,d]furan-3-yl)-1H-1,2,3-triazole-5-carboxylic acid] is 23.8 nM. `O=C(O)c1[nH]nnc1-c1ccc2c(c1)[nH]c1ccccc12` [Example 88, 4-(9H-carbazol-2-yl)-1H-1,2,3-triazole-5-carboxylic acid] came in with a 50% inhibitory concentration (IC50) of 77.6 nM.

For the compound `Cc1cc(-c2ccc(-c3nn[nH]c3C(=O)O)cc2)ccc1Cl` [Example 91], the IC50 was 64.5 nM. Same read-out and setting: the figure for `O=C(O)c1[nH]nnc1-c1ccc(-c2cccc(-c3ccccc3)c2)cc1` [Example 99, 4-([1,131terphenyl]-4-yl)-1H-1,2,3-triazole-5-carboxylic acid] is 408 nM; for `O=C(O)c1[nH]nnc1-c1ccc(-c2ccc(-c3ccncc3)cc2)cc1` [Example 103] it is 93.2 nM.

Turning to `Cc1cnc(-c2ccc(-c3ccc(-c4nn[nH]c4C(=O)O)cc3)cc2)s1` [Example 109], 22.7 nM corresponded to half-maximal inhibition (IC50). The same measure, in the same setting: next, `O=C(O)c1[nH]nnc1-c1ccc(-c2ccc(-c3ncco3)cc2)cc1` [Example 112]: 37.5 nM. The compound `Cc1cc(-c2ccc(-c3ccc(-c4nn[nH]c4C(=O)O)cc3)cc2)nn1C` [Example 117] came in with an IC50 of 19.7 nM.

Consider `O=C(O)c1[nH]nnc1-c1ccc(-c2ccc(-c3nc4ccccc4s3)cc2)cc1` [Example 122], for which half-maximal inhibition (IC50) was put at 10.7 nM.

Take `O=C(O)c1[nH]nnc1-c1ccc(-c2ccc(-c3cn[nH]c3)cc2)cc1` [Example 124]: the IC50 turned out to be 16.1 nM.

Consider `O=C(O)c1[nH]nnc1-c1ccc(-c2ccc(-c3cnn[nH]3)cc2)cc1` [Example 127], for which the half-inhibitory concentration (IC50) amounted to 4.14 nM. For `O=C(O)c1[nH]nnc1-c1ccc(-c2ccc(-c3c[nH]cn3)cc2)cc1` [Example 129], the half-inhibitory concentration (IC50) amounted to 24 nM. Compound `Cc1[nH]nnc1-c1ccc(-c2ccc(-c3nn[nH]c3C(=O)O)cc2)cc1` [Example 131] returned a concentration for half-maximal inhibition (IC50) of 4.67 nM. Same read-out and setting: next, `O=C(O)c1[nH]nnc1-c1ccccn1` [Example 139, 4-(pyridin-2-yl)-1H-1,2,3-triazole-5-carboxylic acid]: ≥ 10000 nM; `O=C(O)c1[nH]ncc1-c1ccccn1` [Example 140, 4-(pyridin-2-yl)-1H-pyrazole-5-carboxylic acid]: ≥ 10000 nM. On the same count and under the same terms, the figure for `O=C(O)c1[nH]nnc1-c1cscn1` [Example 141, 4-(thiazol-4-yl)-1H-1,2,3-triazole-5-carboxylic acid] is ≥ 10000 nM. `CN(C)C(=O)c1cccc(-c2ccc(-c3nn[nH]c3C(=O)O)cc2)c1` [Example 143] came in with an IC50 of 1000 nM. Same read-out and setting: next, `O=C(O)c1[nH]nnc1-c1ccc(-c2ccc(Cl)c(S(=O)(=O)N3CCOCC3)c2)cc1` [Example 146]: 33.6 nM; `Cn1nnc(-c2ccc(F)c(Cl)c2)c1C(=O)O` [Example 150, 4-(3-chloro-4-fluorophenyl)-1-methyl-11H-1,2,3-triazole-5-carboxylic acid]: ≥ 10000 nM. Same read-out and setting: the figure for `CC1(C)c2cc(-c3ccc(-c4nn[nH]c4C(=O)O)cc3)ccc2C(=O)N1CC(F)(F)F` [Example 153, 4-(4-(3,3-dimethyl-1-oxo-2-(2,2,2-trifluoroethyl)isoindolin-5-yl)phenyl)-1H-1,2,3-triazole-5-carboxylic acid] is 119 nM. The same measure, in the same setting: the figure for `O=C(O)c1[nH]nnc1C#Cc1ccc(Cl)cc1` [Example 160, 4-((4-chlorophenyl)ethynyl)-1H-1,2,3-triazole-5-carboxylic acid] is 226 nM; for `CC(=O)N1CC=C(c2ccc(-c3nn[nH]c3C(=O)O)cc2)CC1` [Example 162, 4-(4-(1-acetyl-1,2,3,6-tetrahydropyridin-4-yl)phenyl)-1H-1,2,3-triazole-5-carboxylic acid] it is 88.2 nM. Turning to `CC(=O)N1CCC(c2ccc(-c3nn[nH]c3C(=O)O)cc2)CC1` [Example 163, 4-(4-(1-acetylpiperidin-4-yl)phenyl)-1H-1,2,3-triazole-5-carboxylic acid], the half-maximal inhibitory concentration (IC50) is 1000 nM. In the case of `O=C(O)c1[nH]ncc1-c1ccc2c(c1)C(F)(F)c1cc(-c3c[nH]nn3)ccc1-2` [Example 170, 4-(9,9-difluoro-7-(1H-1,2,3-triazol-4-yl)-9H-fluoren-2-yl)-1H-pyrazole-5-carboxylic acid], half-maximal inhibition (IC50) was put at 16.5 nM.

Regarding `O=C(O)c1c[nH]nc1-c1ccc(F)c(Cl)c1` [Example 182, 3-(3-chloro-4-fluorophenyl)-1H-pyrazole-4-carboxylic acid], the concentration for half-maximal inhibition (IC50) is > 10000 nM. The same measure, in the same setting: the figure for `O=C(O)c1c[nH]nc1-c1cc(Cl)cc(Cl)c1` [Example 183, 3-(3,5-dichlorophenyl)-1H-pyrazole-4-carboxylic acid] is > 10000 nM. On the same count and under the same terms, next, `O=C(O)c1[nH]cnc1-c1ccc(F)c(Cl)c1` [Example 184, 4-(3-chloro-4-fluorophenyl)-1H-imidazole-5-carboxylic acid]: > 10000 nM; `O=C(O)c1[nH]cnc1-c1cc(Cl)cc(Cl)c1` [Example 185, 4-(3,5-dichlorophenyl)-1H-imidazole-5-carboxylic acid]: > 10000 nM.

Source of the values: patent US20240091200A1 (Lilac Therapeutics, Inc., priority 2019, published 2024).
